Experimental findings from patent US8106031B2, “Hydrolytically-resistant boron-containing therapeutics and methods of use” (Anacor Pharmaceuticals, Inc., priority 2006, dated 2012) are described below.

One data set has as its system Trichophyton rubrum. Nature of the data set: MIC against T. rubrum (NCCLS broth dilution). In kind it is cell-based. To be noted: for MIC: Trichophyton rubrum, read-out: Minimum inhibitory concentration, T. rubrum. From the text:
(§1) To determine the antifungal activity of these compounds we screened for their minimum inhibitory concentrations (MIC) against the major dermatophytes that cause onychomycosis, T. rubrum and T. mentagrophytes, and against the yeasts and molds C. albicans, C. neoformans and A. fumigatus to test for their broad spectrum activity. The antifungal agent ciclopirox, currently in use for the topical treatment of onychomycosis, was used as a reference.
(§2) All MIC testing against Trichophyton rubrum, Trichophyton mentagrophytes, Candida albicans, Cryptococcus neoformans and Aspergillus fumigatus were determined following the National Committee for Clinical Laboratory Standards (NCCLS) guidelines for antimicrobial testing of yeasts and filamentous fungi.^i,ii
(§3) Two-fold serial dilutions of the test compounds were prepared in 96-well plates. […] Pfaller M A, Chaturvedi V, Espinel-Ingroff A, Ghannoum M A, Gosey L L, Odds F C, Rex J H, Rinaldi M G, Sheehan D J, Walsh T J, Warnock D W. NCCLS publication M27-A2—Reference Method for Broth Dilution Antifungal Susceptibility Testing of Yeasts; Approved Standard—Second Edition. […] Pfaller M A, Chaturvedi V, Espinel-Ingroff A, Ghannoum M A, Gosey L L, Odds F C, Rex J H, Rinaldi M G, Sheehan D J, Walsh T J, Warnock D W. NCCLS publication M38-A—Reference Method for Broth Dilution Antifungal Susceptibility Testing of Filamentous Fungi; Approved Standard.
(In broth dilution the organism is exposed to a series of concentrations in liquid medium.)

Data set [1] has as its system Trichophyton mentagrophytes. In words: MIC against T. mentagrophytes (NCCLS broth dilution). It counts as cell-based. To be noted: for MIC: Trichophyton mentagrophytes, read-out: Minimum inhibitory concentration, T. mentagrophytes.
From the text: as §1, §2, §3

Another data set deals with Candida albicans. Nature of the data set: MIC against C. albicans (NCCLS broth dilution). It counts as cell-based. The conditions noted are these: for MIC: Candida albicans, read-out: Minimum inhibitory concentration, C. albicans.
From the text: as §1, §2, §3

For another data set, the system named is Cryptococcus neoformans. In words: MIC against C. neoformans (NCCLS broth dilution). It counts as cell-based. To be noted: for MIC: Cryptococcus neoformans, read-out: Minimum inhibitory concentration, C. neoformans.
From the text: as §1, §2, §3

The subject of the next data set is Aspergillus fumigatus. Nature of the data set: MIC against A. fumigatus (NCCLS broth dilution). To be noted: for MIC: Aspergillus fumigatus, read-out: Minimum inhibitory concentration, A. fumigatus. It counts as cell-based.
From the text: as §1, §2, §3

Data set [2] deals with T. rubrum, T. mentagrophytes, C. albicans, C. neoformans and A. fumigatus. Nature of the data set: MIC against the panel of fungi tested. The conditions noted are these: for fold less active than the corresponding oxaborole: 6-membered oxaborin vs 5-membered oxaborole (23a vs 9a, 23b vs 9b, 24 vs 19b). It counts as cell-based.
From the text: MIC, or minimum inhibitory concentration, is the point where compound stops more than 90% of cell growth relative to an untreated control.
as §1, §2
Briefly, compounds were dissolved in DMSO and diluted in sterile water to give a working stock. Two-fold serial dilutions of the test compounds were prepared in 96-well plates. The plates were inoculated with the fungal suspensions to give a final inoculum size of 0.5−2.5×10^3 cells/mL for yeasts or 0.4−5×10^4 CFU/mL for filamentous fungi and then incubated for 24-168 h at 35° C. […] Pfaller M A, Chaturvedi V, Espinel-Ingroff A, Ghannoum M A, Gosey L L, Odds F C, Rex J H, Rinaldi M G, Sheehan D J, Walsh T J, Warnock D W. NCCLS publication M27-A2—Reference Method for Broth Dilution Antifungal Susceptibility Testing of Yeasts; Approved Standard—Second Edition. Wayne, P A: NCCLS; 2002 (Vol. 22, No. 15). • ii. Pfaller M A, Chaturvedi V, Espinel-Ingroff A, Ghannoum M A, Gosey L L, Odds F C, Rex J H, Rinaldi M G, Sheehan D J, Walsh T J, Warnock D W. NCCLS publication M38-A—Reference Method for Broth Dilution Antifungal Susceptibility Testing of Filamentous Fungi; Approved Standard. Wayne, P A: NCCLS; 2002 (Vol. 22, No. 16).

The mark [3] stands for this setting: Table 1, over 90% reduction of growth, 24-168 h at 35° C.
The mark [4] stands for this setting: 24 h, Table 1, over 90% reduction of growth, 24-168 h at 35° C.

What is called melting point is the temperature, or range, at which the solid turns liquid.

≈ marks a conversion by molar mass, not a printed value. Read-outs that look alike come from different tables or passages of the source. Some results are limits rather than exact numbers.

With “6-Fluoro-1-phenyl-1,2,3,4-tetrahydro-2,1-benzoxaborine [23a]”, in the data set with Trichophyton rubrum (setting [3]), the “Minimum inhibitory concentration, T. rubrum” value is 8 µg/mL. Also, the “Minimum inhibitory concentration, T. mentagrophytes” value in data set [1] (setting [3]) was determined as 8 µg/mL. In the data set with Candida albicans (setting [3]), the “Minimum inhibitory concentration, C. albicans” value was determined as 8 µg/mL. The “Minimum inhibitory concentration, C. neoformans” value with Cryptococcus neoformans (setting [3]) was found to be 16 µg/mL. In the data set with Aspergillus fumigatus (setting [3]), the “Minimum inhibitory concentration, A. fumigatus” value stood at 16 µg/mL. For the same compound, in data set [2], the “fold less active than the corresponding oxaborole” value is listed as “approximately 2 fold”.

Consider `c1ccc(B2OCc3ccccc32)cc1` [9a, 1,3-Dihydro-1-phenyl-2,1-benzoxaborole], for which, in the data set with Trichophyton rubrum (Table 2, 1-phenyl series (9)), the “Minimum inhibitory concentration, T. rubrum” value stood at 4 µg/mL (≈ 20.6 µM). For the same compound, the MIC is 4 µg/mL (≈ 20.6 µM) in the data set on Trichophyton rubrum (setting [3]); 4 µg/mL (≈ 20.6 µM) in data set [1] (setting [3]); 4 µg/mL (≈ 20.6 µM) in the data set with Candida albicans (setting [3]); 8 µg/mL (≈ 41.2 µM) with Cryptococcus neoformans (setting [3]); 4 µg/mL (≈ 20.6 µM) in the data set on Aspergillus fumigatus (setting [3]). In data set [1] (Table 2, 1-phenyl series (9)), the “Minimum inhibitory concentration, T. mentagrophytes” value is 4 µg/mL (≈ 20.6 µM). The “Minimum inhibitory concentration, C. albicans” value in the data set on Candida albicans (Table 2, 1-phenyl series (9)) came to 4 µg/mL (≈ 20.6 µM). In addition, the “Minimum inhibitory concentration, C. neoformans” value with Cryptococcus neoformans (Table 2, 1-phenyl series (9)) worked out at 8 µg/mL (≈ 41.2 µM). Moreover, the “Minimum inhibitory concentration, A. fumigatus” value in the data set on Aspergillus fumigatus (Table 2, 1-phenyl series (9)) stood at 4 µg/mL (≈ 20.6 µM). Moreover, in data set [2] (all five fungi), the “MIC values, range over the strains tested” value was 4 to 8 µg/mL.

In turn, `Cc1ccc(B2OCc3cc(F)ccc32)cc1` [9j, 1,3-Dihydro-5-fluoro-1-(4-methylphenyl)-2,1-benzoxaborole] yielded a melting point of 48 to 49 °C. Further, the MIC in the data set on Trichophyton rubrum (Table 2, 1-phenyl series (9)) came to 2 µg/mL (≈ 8.85 µM). The MIC in data set [1] (Table 2, 1-phenyl series (9)) was found to be 2 µg/mL (≈ 8.85 µM). Moreover, the MIC with Candida albicans (Table 2, 1-phenyl series (9)) is 0.5 µg/mL (≈ 2.21 µM). For the same compound, the MIC with Cryptococcus neoformans (Table 2, 1-phenyl series (9)) came to 0.5 µg/mL (≈ 2.21 µM). The MIC in the data set with Aspergillus fumigatus (Table 2, 1-phenyl series (9)) amounted to 0.5 µg/mL (≈ 2.21 µM).

`C(=Cc1ccccc1)B1OCc2ccccc21` [10a, 1,3-Dihydro-1-styryl-2,1-benzoxaborole]: the melting point was in the range of 57 to 59 °C. Further, the MIC in the data set on Trichophyton rubrum (setting [3]) stood at 8 µg/mL (≈ 36.4 µM). Further, in data set [1] (setting [3]), the MIC came out at 8 µg/mL (≈ 36.4 µM). Besides, the MIC in the data set with Candida albicans (setting [3]) was 2 µg/mL (≈ 9.09 µM). Further, the MIC with Cryptococcus neoformans (setting [3]) worked out at 4 µg/mL (≈ 18.2 µM). In addition, in the data set on Aspergillus fumigatus (setting [3]), the MIC amounted to 4 µg/mL (≈ 18.2 µM).

Take `CC1OB(O)c2ccc(F)cc21` (centres unmarked) [19c, 1,3-Dihydro-5-fluoro-1-hydroxy-3-methyl-2,1-benzoxaborolane]: the “Minimum inhibitory concentration, T. rubrum” value in the data set with Trichophyton rubrum (setting [3]) came to 32 µg/mL (≈ 193 µM). In addition, in data set [1] (setting [3]), the “Minimum inhibitory concentration, T. mentagrophytes” value turned out to be 16 µg/mL (≈ 96.4 µM). The “Minimum inhibitory concentration, C. albicans” value in the data set with Candida albicans (setting [3]) came out at 16 µg/mL (≈ 96.4 µM). For the same compound, the “Minimum inhibitory concentration, C. neoformans” value with Cryptococcus neoformans (setting [3]) came out at 32 µg/mL (≈ 193 µM). The “Minimum inhibitory concentration, A. fumigatus” value with Aspergillus fumigatus (setting [3]) came out at 16 µg/mL (≈ 96.4 µM). Further, the “fold decrease in activity” value in data set [2] (3-methyl compound relative to 19b) was 8-32 fold.

Turning to `c1ccc(B2OCCc3ccccc32)cc1` [23b, 1-Phenyl-1,2,3,4-tetrahydro-2,1-benzoxaborine], the MIC (with Trichophyton rubrum (setting [4]); in data set [1] (setting [4]); in the data set with Candida albicans (setting [4]); in the data set on Cryptococcus neoformans (setting [4]); in the data set on Aspergillus fumigatus (setting [4])) was 8 µg/mL (≈ 38.4 µM) throughout. Further, the “fold less active than the corresponding oxaborole” value in data set [2] was 4-16 fold.

On to `Fc1ccc2c(c1)COB2c1ccsc1` [compound 13, 1,3-Dihydro-5-fluoro-1-(thiophen-3-yl)-2,1-benzoxaborole], for which the melting point was 33 to 35 °C. The MIC in the data set with Trichophyton rubrum (setting [3]) worked out at 1 µg/mL (≈ 4.59 µM). In addition, the MIC in data set [1] (setting [3]) is 4 µg/mL (≈ 18.3 µM). Besides, the MIC in the data set on Candida albicans (setting [3]) came out at 1 µg/mL (≈ 4.59 µM). In addition, the MIC with Cryptococcus neoformans (setting [3]) came out at 1 µg/mL (≈ 4.59 µM). Also, the MIC in the data set on Aspergillus fumigatus (setting [3]) stood at 1 µg/mL (≈ 4.59 µM).

Regarding `Cc1cscc1B1OCc2cc(F)ccc21` [compound 14, 1,3-Dihydro-5-fluoro-1-(4-methylthiophen-3-yl)-2,1-benzoxaborole], the melting point is 51 to 53 °C. Further, the MIC in the data set with Trichophyton rubrum (setting [3]) turned out to be 1 µg/mL (≈ 4.31 µM). For the same compound, the MIC in data set [1] (setting [3]) stood at 2 µg/mL (≈ 8.62 µM). Further, in the data set with Candida albicans (setting [3]), the MIC is 1 µg/mL (≈ 4.31 µM). In the data set on Cryptococcus neoformans (setting [3]), the MIC amounted to 1 µg/mL (≈ 4.31 µM). The MIC with Aspergillus fumigatus (setting [3]) is 1 µg/mL (≈ 4.31 µM).

On to `OB1OCCc2cc(F)ccc21` [compound 24, 6-Fluoro-1-hydroxy-1,2,3,4-tetrahydro-2,1-benzoxaborine], for which the MIC in the data set on Trichophyton rubrum (setting [3]) was 32 µg/mL (≈ 193 µM); in data set [1] (setting [3]), 32 µg/mL (≈ 193 µM); with Candida albicans (setting [3]) it was 64 µg/mL (≈ 386 µM); in the data set on Cryptococcus neoformans (setting [3]) it was more than 64 µg/mL; in the data set with Aspergillus fumigatus (setting [3]), 32 µg/mL (≈ 193 µM). Also, the “fold less active than the corresponding oxaborole” value in data set [2] is 32-256 fold.
